Laboratory results as given in patent US20100305121A1, “NOVEL ANTAGONISTS OF THE HUMAN FATTY ACID SYNTHASE THIOESTERASE” (priority 2006, published 2010).

Legend:
human FAS TE [1] = target: T1, human FAS TE (Homo sapiens, UniProt P49327); test: Kinetic characterization of inhibitors, 4-MUH turnover by FAS TE; format: biochemical
T1 construct: Expression of the recombinant thioesterase domain of FAS using pTrcHis-TOPO vector (Invitrogen) was as described in Kridel et al. (2004); His tag (from pTrcHis-TOPO vector)
T1 sequence (P49327 2207-2511 limits assumed): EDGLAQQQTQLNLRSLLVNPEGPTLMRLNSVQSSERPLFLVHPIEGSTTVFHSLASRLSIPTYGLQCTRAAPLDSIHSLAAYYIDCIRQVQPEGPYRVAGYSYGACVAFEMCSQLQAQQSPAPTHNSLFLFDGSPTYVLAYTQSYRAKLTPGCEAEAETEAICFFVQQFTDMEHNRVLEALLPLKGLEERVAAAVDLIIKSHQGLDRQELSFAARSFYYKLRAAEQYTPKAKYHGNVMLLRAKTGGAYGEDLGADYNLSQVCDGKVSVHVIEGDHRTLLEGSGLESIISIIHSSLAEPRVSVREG

FAS holoenzyme [2] = target: T2, FAS holoenzyme (Homo sapiens, UniProt P49327); test: Fatty acid synthesis in vitro, [14C] malonyl-CoA incorporation in MDA-MB-435 cell lysates; format: biochemical; conditions: for effect on fatty acid biosynthesis in cell lysates: 6.3 to 50 μM
T2 construct: Fatty acid synthesis by the FAS holoenzyme in cell lysates was measured by incorporation of; endogenous in cells; host or cells: MDA-MB-435 cell lysate
T2 sequence (P49327 2-2511 limits assumed): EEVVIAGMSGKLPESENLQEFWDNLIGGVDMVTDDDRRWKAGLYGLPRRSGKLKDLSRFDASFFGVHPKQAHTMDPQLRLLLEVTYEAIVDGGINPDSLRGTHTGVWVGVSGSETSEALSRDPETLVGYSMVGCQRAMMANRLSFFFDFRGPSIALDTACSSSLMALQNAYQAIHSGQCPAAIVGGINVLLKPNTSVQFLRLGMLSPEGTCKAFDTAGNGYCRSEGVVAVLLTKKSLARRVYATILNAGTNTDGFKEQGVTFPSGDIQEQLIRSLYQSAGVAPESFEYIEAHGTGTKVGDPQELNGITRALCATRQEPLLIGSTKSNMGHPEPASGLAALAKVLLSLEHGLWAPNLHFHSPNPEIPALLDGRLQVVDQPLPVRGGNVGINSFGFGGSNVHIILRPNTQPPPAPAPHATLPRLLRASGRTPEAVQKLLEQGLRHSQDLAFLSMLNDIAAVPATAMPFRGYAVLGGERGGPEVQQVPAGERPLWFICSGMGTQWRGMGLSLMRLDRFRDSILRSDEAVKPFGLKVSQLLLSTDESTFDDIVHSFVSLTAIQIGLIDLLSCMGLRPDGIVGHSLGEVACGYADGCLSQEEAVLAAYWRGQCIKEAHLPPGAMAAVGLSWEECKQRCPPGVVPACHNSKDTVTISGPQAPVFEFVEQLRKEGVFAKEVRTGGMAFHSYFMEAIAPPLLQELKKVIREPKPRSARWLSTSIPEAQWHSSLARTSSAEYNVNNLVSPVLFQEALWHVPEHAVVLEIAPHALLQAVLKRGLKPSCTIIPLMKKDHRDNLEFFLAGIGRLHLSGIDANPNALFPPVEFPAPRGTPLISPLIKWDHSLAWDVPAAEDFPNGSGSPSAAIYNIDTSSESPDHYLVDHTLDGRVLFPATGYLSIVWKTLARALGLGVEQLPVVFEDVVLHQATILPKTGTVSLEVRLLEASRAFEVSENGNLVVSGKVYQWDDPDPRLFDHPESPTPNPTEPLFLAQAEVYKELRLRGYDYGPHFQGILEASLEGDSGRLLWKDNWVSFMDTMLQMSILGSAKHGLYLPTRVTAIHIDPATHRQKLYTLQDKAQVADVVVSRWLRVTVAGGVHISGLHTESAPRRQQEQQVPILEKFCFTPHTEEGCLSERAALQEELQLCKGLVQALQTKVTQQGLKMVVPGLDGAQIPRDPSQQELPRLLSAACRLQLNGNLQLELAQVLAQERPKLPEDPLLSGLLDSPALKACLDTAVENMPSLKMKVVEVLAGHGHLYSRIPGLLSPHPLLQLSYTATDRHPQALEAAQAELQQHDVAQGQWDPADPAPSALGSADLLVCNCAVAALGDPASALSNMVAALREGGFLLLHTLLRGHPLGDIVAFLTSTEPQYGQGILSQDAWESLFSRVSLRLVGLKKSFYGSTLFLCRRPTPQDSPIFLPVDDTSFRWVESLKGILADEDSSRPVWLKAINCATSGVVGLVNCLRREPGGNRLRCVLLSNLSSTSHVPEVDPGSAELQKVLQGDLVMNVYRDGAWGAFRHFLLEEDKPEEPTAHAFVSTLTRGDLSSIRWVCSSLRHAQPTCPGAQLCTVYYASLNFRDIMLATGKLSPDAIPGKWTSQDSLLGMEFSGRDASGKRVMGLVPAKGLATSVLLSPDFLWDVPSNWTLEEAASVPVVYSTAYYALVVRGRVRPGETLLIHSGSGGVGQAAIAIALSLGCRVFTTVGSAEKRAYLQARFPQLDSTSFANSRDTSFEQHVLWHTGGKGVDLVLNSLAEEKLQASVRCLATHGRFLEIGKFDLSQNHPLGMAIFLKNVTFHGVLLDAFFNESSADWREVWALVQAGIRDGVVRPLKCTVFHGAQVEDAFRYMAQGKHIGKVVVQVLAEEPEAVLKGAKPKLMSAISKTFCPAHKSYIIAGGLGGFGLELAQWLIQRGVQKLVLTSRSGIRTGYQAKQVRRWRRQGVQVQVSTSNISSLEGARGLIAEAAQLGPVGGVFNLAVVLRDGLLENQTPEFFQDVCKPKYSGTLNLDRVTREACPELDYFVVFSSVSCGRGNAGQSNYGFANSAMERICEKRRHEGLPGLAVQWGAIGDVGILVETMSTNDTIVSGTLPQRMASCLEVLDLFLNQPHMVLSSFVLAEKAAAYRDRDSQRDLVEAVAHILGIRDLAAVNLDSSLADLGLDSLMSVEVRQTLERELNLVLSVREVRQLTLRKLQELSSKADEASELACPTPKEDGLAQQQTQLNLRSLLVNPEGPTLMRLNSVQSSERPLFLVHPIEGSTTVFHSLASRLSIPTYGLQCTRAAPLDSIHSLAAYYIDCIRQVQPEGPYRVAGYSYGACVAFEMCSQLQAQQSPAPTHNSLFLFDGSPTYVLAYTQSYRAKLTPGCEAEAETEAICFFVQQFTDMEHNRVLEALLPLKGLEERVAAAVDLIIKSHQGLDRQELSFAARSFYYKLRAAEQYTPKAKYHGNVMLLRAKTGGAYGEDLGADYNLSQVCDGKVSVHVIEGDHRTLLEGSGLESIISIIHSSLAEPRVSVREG

Cytotoxicity, MTS assay = conditions: human, MDA-MB-435 breast carcinoma cells, Cytotoxicity IC50 (μM), MDA-MB-435 cells
human FAS TE [3] = target: T1, human FAS TE; test: Fluorogenic 4-MUH screening assay of recombinant FAS TE (primary and secondary screen); format: biochemical
FAS holoenzyme [4] = target: T2, FAS holoenzyme; test: Activity-based probe FP-BODIPY labeling of FAS TE active site in MDA-MB-435 cell lysates; format: binding; conditions: MB-MDA-435 cell lysates, 50 nM probe
[5] = tested on: MDA-MB-435 breast carcinoma cells; test: Cytotoxicity, MTS assay; conditions: read-out: Cytotoxicity IC50, MDA-MB-435 cells, 48 hours

Cc1ccc(Br)c(-c2ccc(C=C3C(=O)NC(=S)NC3=O)o2)c1 [RDR019 (1), 5-((5-(2-bromo-5-methylphenyl)furan-2-yl)methylene)-2-thioxodihydropyrimidine-4,6(1H,5H)-dionc]
Ki (human FAS TE [1]): 0.11 µM
partial versus pure non-competitive inhibition (Km/Vmax(i) versus [I]) (human FAS TE [1]): partial non-competitive inhibitor
type of inhibition of FAS TE (double reciprocal plots) (human FAS TE [1]): non-competitive inhibitors
IC50 (FAS holoenzyme [2]): ~20 µM
effect on fatty acid biosynthesis in cell lysates (FAS holoenzyme [2]): completely abrogated fatty acid biosynthesis
IC50 at 48 h (Cytotoxicity, MTS assay): 20.6 µM

CN(C)c1ccc(C/C=C2/C(=O)NC(=S)N(c3ccccc3F)C2=O)cc1 [RDR057 (10), (Z)-5-(2-(4-(dimethylamino)phenyl)ethylidene)-1-(2-fluorophenyl)-2-thioxodihydropyrimidine-4,6(1H,5H)-dione]
IC50 (human FAS TE [3]): 4.3 µM

CN1C(=O)NC(=O)/C(=C/c2ccc(-c3ccc([N+](=O)[O-])cc3Br)o2)C1=O [RDR102 (2), (Z)-5-((5-(2-bromo-4-nitrophenyl)furan-2-yl)methylene)-1-methylpyrimidine-2,4,6(1H,3H,5H)-trione]
Ki (human FAS TE [1]): 0.1 µM
IC50 (FAS holoenzyme [2]): ~20 µM
effect on fatty acid biosynthesis in cell lysates (FAS holoenzyme [2]): completely abrogated fatty acid biosynthesis
concentration of complete inhibition of FP-BODIPY binding (FAS holoenzyme [4]): approximately 50 μM
IC50 at 48 h (Cytotoxicity, MTS assay): 14.2 µM

COc1cccc(N2C(=O)NC(=O)/C(=C/C/C=C/c3ccccc3[N+](=O)[O-])C2=O)c1 [RDR203 (9), (Z)-1-(3-methoxyphenyl)-5-((E)-4-(2-nitrophenyl)but-3-enylidene)pyrimidine-2,4,6(1H,3H,5H)-trione]
IC50 (human FAS TE [3]): 2 µM

O=C1NC(=O)C(=Cc2ccc(-c3cc([N+](=O)[O-])ccc3O)o2)C(=O)N1 [RDR256 (5), 5-((5-(2-hydroxy-5-nitrophenyl)furan-2-yl)methylene)pyrimidine-2,4,6(1H,3H,5H)-trione]
IC50 (human FAS TE [3]): 9.2 µM

O=C1NC(=O)C(=Cc2ccc(-c3ccccc3C(=O)O)o2)C(=O)N1 [RDR317 (6), 2-(5-((2,4,6-trioxotetrahydropyrimidin-5(6H)-ylidene)methyl)furan-2-yl)benzoic acid]
IC50 (human FAS TE [3]): 29 µM

O=C1NC(=S)NC(=O)C1=Cc1ccc(-c2ccc(C(=O)O)cc2)o1 [RDR423 (4), 4-(5-((4,6-dioxo-2-thioxotetrahydropyrimidin-5(6H)-ylidene)methyl)furan-2-yl)benzoic acid]
IC50 (human FAS TE [3]): 5.3 µM

CCOc1ccc(C/C=C2/C(=O)NC(=O)N(c3ccc(OCC)cc3)C2=O)cc1 [RDR506 (11), (Z)-1-(4-ethoxyphenyl)-5-(2-(4-ethoxyphenyl)ethylidene)pyrimidine-2,4,6(1H,3H,5H)-trione]
IC50 (human FAS TE [3]): 14.5 µM

Cc1cccc(N2C(=O)NC(=O)/C(=C/Nc3ccccc3C)C2=O)c1 [RDR564 (12), (Z)-1-m-tolyl-5-((o-tolylamino)methylene)pyrimidine-2,4,6(1H,3H,5H)-trione]
IC50 (human FAS TE [3]): 105 µM

COc1ccc(N2C(=O)NC(=O)/C(=C/C/C=C/c3ccccc3)C2=O)c(OC)c1 [RDR755 (7), (Z)-1-(2,4-dimethoxyphenyl)-5-((E)-4-phenylbut-3-enylidene)pyrimidine-2,4,6(1H,3H,5H)-trione]
Ki (human FAS TE [1]): 0.12 µM
type of inhibition of FAS TE (double reciprocal plots) (human FAS TE [1]): non-competitive inhibitors
IC50 at 48 h (Cytotoxicity, MTS assay): 1.6 µM
IC50 [5]: 1.61 µM

O=C1NC(=O)N(c2ccccc2)C(=O)/C1=C\C/C=C/c1ccccc1[N+](=O)[O-] [RDR914 (8), (Z)-5-((E)-4-(2-nitrophenyl)but-3-enylidene)-1 - phenylpyrimidine-2,4,6(1H,3H,5H)-trione]
IC50 (human FAS TE [3]): 1.5 µM
IC50 at 48 h (Cytotoxicity, MTS assay): 9.5 µM
IC50 [5]: 9.53 µM

COc1ccc(-c2ccc(C=C3C(=O)NC(=S)NC3=O)o2)c([N+](=O)[O-])c1 [RDR924 (3), 5-((5-(4-methoxy-2-nitrophenyl)furan-2-yl)methylene)-2-thioxodihydropyrimidine-4,6(1H,5H)-dione]
concentration of complete inhibition of FP-BODIPY binding (FAS holoenzyme [4]): approximately 50 μM
IC50 (human FAS TE [3]): 4.4 µM
